Patent US20250179049A1, “SALTS OF HETEROCYCLIC INHIBITORS OF MONOCARBOXYLATE TRANSPORTER 4 FOR THE TREATMENT OF DISEASE” (Vettore, LLC, priority 2022, published 2025)
Counter-ions that a name gives are not always drawn. Like-named read-outs stand apart in the source and are kept apart here.

Assays:
[1] = tested on: bleomycin-induced lung fibrosis; assay: Bleomycin-induced lung fibrosis model; assay type: in vivo, mice
Description: The reduction of lung fibrosis upon MCT4 inhibition is coupled with changes in serum metabolites that indicates turnover of extracellular matrix protein and increased fatty acid oxidation. […] The effects of Compound 1, alone or in combination with approved IPF drugs pirfenidone or nintedanib, were studied in the bleomycin-induced lung fibrosis model in therapeutic mode. Compound 1 was dosed at 3 mg/kg, BID; pirfenidone was dosed at 100 mg/kg, BID; and nintedanib was dosed at 50 mg/kg, QD, all via oral gavage.

beagle dogs [2] = assay: Range finding toxicity study in dogs; assay type: in vivo
Description: (§1) Compound 1 was administered to beagle dogs by oral gavage in a range finding study at doses of 30, 79, 240, or 790 mg/kg. […] Compound 1 was administered at doses of 10, 50, and 150 mg/kg/day in the pivotal repeat dose toxicity studies for 28 days.

Sprague Dawley rats [3] = assay: Behavioral safety pharmacology study; assay type: in vivo; settings: oral dose of up to 400 mg/kg, male rats (highest dose tested)
Description: (§2) The safety pharmacology of Compound 1 and its tris salt was evaluated in an in vitro human ether-à-go-go related gene (hERG) assay, a behavioral study in Sprague Dawley rats, and a respiratory and cardiovascular system assessment using electrocardiogram (ECG)-telemetered beagle dogs. […] Determination of the IC50 against the hERG channel was precluded due to potential cytotoxicity at doses >300 μM. […] Cardiovascular safety pharmacology assessments noted decreases in PR interval duration that were detected up to 9 hours post administration of Compound 1 and were usually dose related and associated with potential changes in heart rate. These changes were considered biologically insignificant due to their small magnitude (up to 10 msec compared to vehicle control), association with potential increases in heart rate, and the absence of correlated findings.

[4] = tested on: primary human lung fibroblasts; assay: Fibroblast-to-myofibroblast transition; assay type: cell-based
Source text: The reduction of lung fibrosis upon MCT4 inhibition is coupled with changes in serum metabolites that indicates turnover of extracellular matrix protein and increased fatty acid oxidation.

[5] = ADME: intravenous clearance and oral bioavailability; assay type: in vivo
Source text: The absorption, distribution, metabolism, and excretion properties of Compound 1 have been characterized in both in vitro and in vivo studies. Sensitive and selective bioanalytical methods have been developed and validated for rat and dog plasma. Following intravenous administration, the systemic clearance of Compound 1 in all species evaluated was considered low. Following oral administration, bioavailability was generally greater than 30% in the species evaluated. Initial studies utilized the Compound 1 free form. […] All Good Laboratory Practice (GLP) studies were performed using the Compound 1 tris salt form. Dose levels indicate Compound 1 free form equivalents unless otherwise noted.

hERG channel = hERG channel (Homo sapiens, UniProt Q12809); assay: in vitro hERG assay; assay type: cell-based; settings: determination precluded by potential cytotoxicity at >300 μM; read-out: half maximal inhibitory concentration (IC50) against the hERG channel
Chain of hERG channel (Q12809 whole entry): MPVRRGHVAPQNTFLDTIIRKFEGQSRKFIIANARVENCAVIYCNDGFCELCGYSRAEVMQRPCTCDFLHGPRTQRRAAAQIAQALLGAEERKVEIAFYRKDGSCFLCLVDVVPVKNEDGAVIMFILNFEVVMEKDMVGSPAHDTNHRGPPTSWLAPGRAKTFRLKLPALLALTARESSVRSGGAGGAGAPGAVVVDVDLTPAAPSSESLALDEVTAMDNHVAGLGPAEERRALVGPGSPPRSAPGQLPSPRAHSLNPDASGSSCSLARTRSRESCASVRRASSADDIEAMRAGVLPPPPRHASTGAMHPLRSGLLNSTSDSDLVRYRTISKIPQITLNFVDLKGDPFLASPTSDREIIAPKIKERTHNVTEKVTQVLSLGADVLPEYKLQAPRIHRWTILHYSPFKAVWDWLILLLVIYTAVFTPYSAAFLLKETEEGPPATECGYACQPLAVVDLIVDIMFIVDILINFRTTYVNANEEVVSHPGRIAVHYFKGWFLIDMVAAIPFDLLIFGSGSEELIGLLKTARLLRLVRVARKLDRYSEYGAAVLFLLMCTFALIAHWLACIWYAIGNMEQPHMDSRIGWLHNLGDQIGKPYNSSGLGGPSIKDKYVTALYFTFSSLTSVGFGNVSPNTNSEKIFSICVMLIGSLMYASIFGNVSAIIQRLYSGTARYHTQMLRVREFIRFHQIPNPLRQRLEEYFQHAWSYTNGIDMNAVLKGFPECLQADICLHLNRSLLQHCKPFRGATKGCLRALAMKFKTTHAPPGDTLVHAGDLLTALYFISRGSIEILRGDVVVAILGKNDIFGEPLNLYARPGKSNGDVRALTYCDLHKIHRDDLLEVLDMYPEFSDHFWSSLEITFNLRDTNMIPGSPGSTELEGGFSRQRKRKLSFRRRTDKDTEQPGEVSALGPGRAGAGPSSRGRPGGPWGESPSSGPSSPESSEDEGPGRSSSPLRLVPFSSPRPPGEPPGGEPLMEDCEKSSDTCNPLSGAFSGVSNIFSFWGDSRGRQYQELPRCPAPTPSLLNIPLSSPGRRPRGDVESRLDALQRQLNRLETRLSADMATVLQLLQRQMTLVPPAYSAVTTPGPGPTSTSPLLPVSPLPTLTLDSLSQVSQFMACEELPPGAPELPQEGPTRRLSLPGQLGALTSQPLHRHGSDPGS
Description: as §2

beagle dogs [6] = assay: Respiratory and cardiovascular assessment in ECG-telemetered dogs; assay type: in vivo
Description: as §2

Sprague Dawley rats [7] = assay: 28-day repeat-dose toxicity study in rats; assay type: in vivo; settings: male, rat, in vivo, 400 mg/kg/day, 28 days
Description: (§3) Compound 1 was administered to Sprague Dawley rats by oral gavage at doses of 25, 75, and 250 mg/kg/day (females) and 40, 120, and 400 mg/kg/day (males) for 28 days. Compound 1-related mortality occurred in 8 of the 15 toxicity males administered 400 mg/kg/day beginning on Day 8 through 24. […] Target tissues included bone marrow, spleen, thymus, liver, lymph nodes, epididymides, seminal vesicles, prostate, testes, uterus, and ovaries.
(§4) Compound 1 tris salt was evaluated for safety in 7- and 28-day studies in rats and dogs. […] The NOAELs for this rat study were 120 mg/kg/day for males and 75 mg/kg/day for females. […] The NOAEL determined in the 28-day dog GLP study was 150 mg/kg/day. These correspond to human equivalent doses (HEDs) of: • Rat: 75 mg/kg×0.16=12 mg/kg • Dog: 150 mg/kg×0.54=81 mg/kg

[8] = 28-day repeat-dose toxicity study in rats; assay type: in vivo; settings: Sprague Dawley, rat; for AUC(0-t) / Cmax: plasma; for AUC(0-t): read-out: AUC0-24 at NOAEL; for Cmax: read-out: Cmax at NOAEL
Description: as §3, §4

[9] = Dog pharmacokinetics, powder in capsule; assay type: in vivo, beagle dogs
Description: Groups, Dosing, and Collection. The pharmacokinetics of the free acid and the tris salt of Compound 1 administered by oral capsules was assessed in dogs. Three male beagle dogs were administered a single dose of 3 mg/kg Compound 1 free acid on Day 1 of the study, and a single dose of 3 mg/kg Compound 1 tris salt on Day 8 of the study. Plasma was collected pre-dose, and at 0.5, 1, 2, 4, 8, 12 and 24 hours post-dose via puncture of peripheral veins.
(§5) LC MS-MS Analysis. Liquid Chromatography with tandem mass spectrometry was used to determine plasma concentrations of Compound 1 Free Acid and Compound 1 Tris Salt in plasma samples collected at prescribed time points. Instrumentation included YMC-Triart C18, S-5 μm (50×2.1 mm) HPLC column, liquid chromatograph Shimadzu LC-30AD with communications bus module CBM-20A and Auto SIL-20AC HT; and a Triple Quad 5500 LC/MS/MS instrument. Tolbutamide was used as an internal standard.

beagle dogs [10] = assay: in vivo; settings: both, dog, 28 days
Description: as §1, §4

[11] = Dog pharmacokinetics, oral gavage suspension; assay type: in vivo, beagle dogs; settings: for MRT last / half-life: dog, plasma; for MRT last / half-life / ClF: male beagle dogs, oral suspension, mean
Description: In a follow-up study, the pharmacokinetics of tris salt Compound 1 were investigated via oral gavage of a 0.5% methylcellulose in saline formulation. Two Groups of animals were tested. In Group 1, three male beagle dogs were administered a single dose of 3 mg/kg Compound 1 tris salt. In Group 2, three male beagle dogs were administered a single dose of 30 mg/kg Compound 1 tris salt. Plasma was collected pre-dose, and at 0.5, 1, 2, 4, 8, 12 and 24 hours post-dose via puncture of peripheral veins.
as §5

[12] = male, beagle, dog, plasma, po, 3 mg/kg, male beagle dogs, powder in capsule, mean
[13] = male beagle dogs, powder in capsule, 3 mg/kg, mean

CC(C)(OCc1cc(-c2cccc(OC3CCC3)c2)n(-c2ccccc2N2CCC2)n1)C(=O)O [Compound 1, 2-((1-(2-(azetidin-1-yl)phenyl)-5-(3-cyclobutoxyphenyl)-1H-pyrazol-3-yl)methoxy)-2-methylpropanoic acid]
Lung fibrosis ([1]; aged (>60 week) mice): reduced lung fibrosis
Lung lactate levels ([1]; aged (>60 week) mice): reduction in lung lactate levels
Lung fibrosis ([1]; bleomycin-induced mouse model of IPF): reduces lung fibrosis
Minimal efficacious dose ([1]; twice daily (BID), bleomycin-induced mouse model of IPF): 3 mg/kg
Dose at which decreased thymus weights were observed (beagle dogs [2]; dogs): ≥ 240 mg/kg
Clinical observations (beagle dogs [2]; dogs, oral gavage 30, 79, 240, or 790 mg/kg, all dose levels): Watery feces and emesis were occasionally observed
Electrolyte changes (beagle dogs [2]; male dogs, 790 mg/kg): increased potassium and decreased sodium and chloride
Behavioral effects (Sprague Dawley rats [3]): no Compound 1-related behavioral effects
Fibroblast-to-myofibroblast transition [4]: attenuates the fibroblast-to-myofibroblast transition
Production of alpha-smooth muscle actin (αSMA) [4]: reducing the production
Systemic clearance ([5]; intravenous administration, all species evaluated): low
bioavailability ([5]; plasma, oral administration, species evaluated): > 30%
IC50 (hERG channel): > 300 µM
Time post administration at which decreases in PR interval duration were detected (beagle dogs [6]; dogs): up to 9 hours
Decrease in PR interval duration, magnitude (beagle dogs [6]; dogs, compared to vehicle control): up to 10 msec
Respiratory effects (beagle dogs [6]; oral dose of up to 150 mg/kg, dogs (highest dose tested)): no significant respiratory effects
Compound-related mortality (Sprague Dawley rats [7]): 8 of the 15
NOAEL at 28 days ([8]; in vivo, male rats, 28 days oral gavage, read-out: NOAEL): 120 mg/kg/day
AUC(0-t) ([8]; po, female rats, 75 mg/kg/day): 3230 µg·h/mL
Cmax ([8]; po, female rats, 75 mg/kg/day): 198 µg/mL
AUC(0-t) ([8]; po, male rats, 120 mg/kg/day): 2780 µg·h/mL
Cmax ([8]; po, male rats, 120 mg/kg/day): 180 µg/mL
NOAEL at 28 days ([8]; female, in vivo, po): 75 mg/kg/day
Clinical symptoms ([9]; dogs, single 3 mg/kg oral capsule dose): No abnormal clinical symptoms were observed
ClF ([9]; male beagle dogs, powder in capsule, 3 mg/kg, mean, listed as Free Acid): 2505
MRT last [9, 12]: 5.39 h
half-life [9, 12]: 6.33 h

CC(C)(OCc1cc(-c2cccc(OC3CCC3)c2)n(-c2ccccc2N2CCC2)n1)C(=O)O [Compound 1 tris salt, tris salt of 2-((1-(2-(azetidin-1-yl)phenyl)-5-(3-cyclobutoxyphenyl)-1H-pyrazol-3-yl)methoxy)-2-methylpropanoic acid]
Adverse effects (beagle dogs [10]): no Compound 1 tris salt-related adverse effects
MRT last ([11]; 3 mg/kg): 2.34 h
half-life ([11]; 3 mg/kg): 4.74 h
MRT last ([11]; 30 mg/kg): 3.81 h
half-life ([11]; 30 mg/kg): 3.69 h
Clinical symptoms ([11]; dogs, single 3 or 30 mg/kg oral gavage dose): No abnormal clinical symptoms were observed
ClF ([11]; 3 mg/kg): 602
ClF ([11]; 30 mg/kg): 547
Human equivalent dose of NOAEL at 28 days ([8]; female, in vivo, 75 mg/kg): 12 mg/kg
Half-life compared to free acid ([9]; dogs): lower
Mean residence time compared to free acid ([9]; dogs): increased
Total drug exposure across time (AUClast and AUCInf) compared to free acid ([9]; dogs, powder in capsule and suspension formulations): higher
ClF [9, 13]: 756
MRTlast [9, 13]: 7.89 h
T1/2 [9, 13]: 3.63 h
